Reference: ChEMBL document CHEMBL1132126, “Synthesis of spermidine and norspermidine dimers as high affinity polyamine transport inhibitors” (Bioorg Med Chem Lett, 1999)
pKi: −log10 of the molar value.

Tests used:
Format in all cases: functional, cell-based
T47D [1] = experiment: Inhibition of [3H]putrescine transport by the compound was evaluated in T-47D human breast cancer cells
T47D [2] = experiment: Inhibition of [3H]spermidine transport by the compound was evaluated in T-47D human breast cancer cells
T47D [3] = experiment: Inhibition of [3H]spermine transport by the compound was evaluated in T-47D human breast cancer cells
ZR-75-1 = experiment: Inhibition of [3H]spermine transport by the compound was evaluated in ZR-75-1 human breast cancer cells

| SMILES | pKi (T47D [1]) | pKi (T47D [2]) | pKi (T47D [3]) | pKi (ZR-75-1) |
| --- | --- | --- | --- | --- |
| NCCCN(C/C=C/CN(CCCN)CCCN)CCCN | 6.57 | 5.70 | 5.80 |  |
| NCCCCN(CCCN)Cc1ccc(CN(CCCN)CCCCN)cc1 | 6.55 | 5.70 | 5.54 | 6.62 |
| NCCCN(CCCN)C(=O)CCC(=O)N(CCCN)CCCN |  |  |  | 5.77 |
| NCCCNCCCCNCCCN [SPERMINE] | 6.19 | 6.04 | 5.57 | 6.70 |
| NCCCN(CC#CCN(CCCN)CCCN)CCCN | 5.59 | 4.59 | 4.89 |  |
| NCCCCN [PUTRESCINE] | 5.13 |  |  |  |
| NCCCCNCCCN [SPERMIDINE] |  | 5.36 |  |  |
| NCCCN(CCCN)Cc1ccc(CN(CCCN)CCCN)cc1 | 6.80 | 5.82 | 5.82 | 6.15 |
| NCCCCN(C/C=C/CN(CCCN)CCCCN)CCCN | 7.00 | 5.74 | 5.82 |  |
| NCCCCN(CCCN)CCCCN(CCCN)CCCCN | 6.14 | 5.31 | 5.37 |  |
| NCCCNCCCC(NCCCN)C(=O)NCCSSCCNC(=O)C(CCCNCCCN)NCCCN (stereo not drawn) | 5.51 | 4.90 | 4.80 | 5.40 |
| NCCCN(CCCN)CCCCN(CCCN)CCCN | 6.28 | 5.62 | 5.21 | 6.25 |
| NCCCCN(CC#CCN(CCCN)CCCCN)CCCN | 5.72 | 4.77 | 4.56 |  |
